# Results as given in publication PMC7315563, “Bioactive fluorenes. Part III: 2,7-dichloro-9H-fluorene-based thiazolidinone and azetidinone analogues as anticancer and antimicrobial against multidrug resistant strains agents” (BMC Chemistry, 2020).
# Columns and labels:
# [1] = test system: A549 human lung cancer cells; test: cell viability assay (MTT); assay type: cell-based; conditions: 24 h; for viability at 1 µg/mL: read-out: Validity (%) for sample concentrations (µg/mL) 1; for viability at 10 µg/mL: read-out: Validity (%) for sample concentrations (µg/mL) 10; for viability at 31.25 µg/mL: read-out: Validity (%) for sample concentrations (µg/mL) 31.25; for viability at 62.5 µg/mL: 62.50 µg/mL, read-out: Validity (%) for sample concentrations (µg/mL) 62.50; for viability at 125 µg/mL: read-out: Validity (%) for sample concentrations (µg/mL) 125; for viability at 250 µg/mL: read-out: Validity (%) for sample concentrations (µg/mL) 250; for viability at 500 µg/mL: read-out: Validity (%) for sample concentrations (µg/mL) 500; for viability at 1000 µg/mL: read-out: Validity (%) for sample concentrations (µg/mL) 1000
# Method: WI-38 normal lung fibroblast cells, A549 lung cancer cells, and MDA-MB-231 breast cancer cells were obtained from VACSERA—Cell Culture Unit, Cairo, Egypt. The cell lines were originally obtained from the American Tissue Culture Collection (ATCC). WI-38, A549, and MDA-MB-231 cell lines were cultured in RPMI-1640 medium supplemented with 10% inactivate fetal bovine serum (FBS) and 1% penicillin/streptomycin were bought (Gibco, Invitrogen, CA). WI-38, A549, and MDA-MB-231 cells were seeded into 96-well plates (at a density of 5000 cells/well). […] Cell viability was then assessed using the MTT assay (Sigma Aldrich, St. Louis, MO, USA), and the absorbance was read at 570 nm using an ELISA microplate reader (Molecular Devices, Downingtown, PA, USA).
# [2] = test system: Staphylococcus aureus (S. aureus), multidrug resistant clinical isolate; test: agar well diffusion assay; assay type: cell-based; conditions: Staphylococcus aureus; S. aureus; 500 µg/mL of tested compound; 24 h
# Text: (§1) All microbial strains were kindly provided from the department of Medical Microbiology and Immunology faculty of Medicine Assiut University, these clinical isolates were obtained from clinical cases of infections admitted to Assiut University hospital as urinary tract infections, corneal ulcers, bacterial and fungal pneumonia, otomycosis, oral thrush and wound infections.
# (§2) The clinical isolates used were multidrug resistant strains, they were resistant to β lactam (penicillin, amoxacillin, oxacillin), cephalosporins (cefazolin, cefaclor and cefepime) and macrolides (erythromycin and clarithromycin), they included Gram positive bacteria as Staphylococcus aureus (S. aureus), Methicillin-resistant Staphylococcus aureus (MRSA), Streptococcus pneumoniae (S. pneumoniae), and Gram negative bacteria as Escherichia coli (E. coli), Klebsiella pneumoniae (K. pneumoniae), Pseudomonas aeruginosa (P. aeruginosa), and Acinetobacter baumannii (A. baumannii). The fungal strains that were tested are Aspergillus flavus (A. flavus), A. niger (A. niger) and Candida albicans (C. albicans).
# (§3) The antimicrobial activity of the fluorene derivatives was initially evaluated by agar well diffusion assay. Mueller–Hinton agar (CM0337) was poured into Petri dishes at 50–60 °C and left to solidify for 15 min. Subsequently, overnight microbial suspensions of tested strains was adjusted to turbidity of 0.5 McFarland Standard, which equals to 1–2 × 10^8 CFU/mL for bacteria and 1–5 × 10^6 for fungi. The microbial inoculums were then diluted in 1:100 ratio in case of bacteria and 1:10 ratio in case of fungi in order to get 1–5 × 10^5 CFU/mL. a sterile cotton swab was dipped into the adjusted microbial suspension and the Mueller–Hinton agar plates were inoculated by evenly streaking cotton swab over the agar medium. Then wells with a diameter of 0.5 cm were cut in the medium with a sterile cork borer. Stock solutions of the flourene derivatives were diluted in DMSO 1% to get 500 μg/mL concentrations. The tested flourene derivatives and controls (50 μL) were dispensed into the wells. The plates were incubated for 24 h at 37 °C for bacteria and C. albicans while at 25 °C for A. falvus and A. niger. The diameters of zones of inhibition (ZOI) around the wells were measured in mm. Following control agents were used: positive control agents—vancomycin (50 μg/mL) for Gram positive bacteria, gentamicin (10 μg/mL) (for Gram negative bacteria) and fluconazole 25 μg/mL for fungi and negative control agent is 1% DMSO.
# [3] = test system: Escherichia coli (E. coli), multidrug resistant clinical isolate; test: agar well diffusion assay; assay type: cell-based; conditions: 24 h, 500 µg/mL of tested compound
# Text: as §1, §2, §3
# [4] = test system: MDA-MB-231 human breast cancer cells; test: cell viability assay (MTT); assay type: cell-based; conditions: 24 h; for viability at 1 µg/mL: read-out: Validity (%) for sample concentrations (µg/mL) 1; for viability at 10 µg/mL: read-out: Validity (%) for sample concentrations (µg/mL) 10; for viability at 31.25 µg/mL: read-out: Validity (%) for sample concentrations (µg/mL) 31.25; for viability at 62.5 µg/mL: read-out: Validity (%) for sample concentrations (µg/mL) 62.5; for viability at 125 µg/mL: read-out: Validity (%) for sample concentrations (µg/mL) 125; for viability at 250 µg/mL: read-out: Validity (%) for sample concentrations (µg/mL) 250; for viability at 500 µg/mL: read-out: Validity (%) for sample concentrations (µg/mL) 500
# Method: (§4) WI-38 normal lung fibroblast cells, A549 lung cancer cells, and MDA-MB-231 breast cancer cells were obtained from VACSERA—Cell Culture Unit, Cairo, Egypt. The cell lines were originally obtained from the American Tissue Culture Collection (ATCC). WI-38, A549, and MDA-MB-231 cell lines were cultured in RPMI-1640 medium supplemented with 10% inactivate fetal bovine serum (FBS) and 1% penicillin/streptomycin were bought (Gibco, Invitrogen, CA). WI-38, A549, and MDA-MB-231 cells were seeded into 96-well plates (at a density of 5000 cells/well). On the following day, cells were treated with different concentrations (0, 1, 10, 31.25, 62.5, 125, 250, 500 µg/mL) of 16 fluorene derivatives in fresh medium and incubated for another 24 h. Cell viability was then assessed using the MTT assay (Sigma Aldrich, St. Louis, MO, USA), and the absorbance was read at 570 nm using an ELISA microplate reader (Molecular Devices, Downingtown, PA, USA).
# [5] = test system: WI-38 human normal fibroblast cells; test: cell viability assay (MTT); assay type: cell-based; conditions: 24 h; for viability at 31.25 µg/mL: read-out: Validity (%) for sample concentrations (µg/mL) 31.25; for viability at 62.5 µg/mL: 62.50 µg/mL, read-out: Validity (%) for sample concentrations (µg/mL) 62.50; for viability at 125 µg/mL: read-out: Validity (%) for sample concentrations (µg/mL) 125; for viability at 250 µg/mL: read-out: Validity (%) for sample concentrations (µg/mL) 250; for viability at 500 µg/mL: read-out: Validity (%) for sample concentrations (µg/mL) 500
# Method: as §4
melting point [°C],IC50 [1] [µg/mL],IC50 [4] [µg/mL],SMILES,viability at 1 µg/mL [1] [%],viability at 10 µg/mL [1] [%],viability at 31.25 µg/mL [1] [%],viability at 62.5 µg/mL [1] [%],viability at 125 µg/mL [1] [%],viability at 250 µg/mL [1] [%],viability at 500 µg/mL [1] [%],viability at 1000 µg/mL [1] [%],viability at 1 µg/mL [4] [%],viability at 10 µg/mL [4] [%],viability at 31.25 µg/mL [4] [%],viability at 62.5 µg/mL [4] [%],viability at 125 µg/mL [4] [%],viability at 250 µg/mL [4] [%],viability at 500 µg/mL [4] [%],viability at 31.25 µg/mL [5] [%],viability at 62.5 µg/mL [5] [%],also measured
124 to 126,577,> 500,"O=C1CSC(c2ccc[nH]2)N1c1nc(-c2cc(Cl)cc3c2-c2ccc(Cl)cc2C3)cs1 (centres unmarked) [5l, 3-(4-(2,7-Dichloro-9H-fluoren-4-yl)thiazol-2-yl)-2-(1H-pyrrol-2-yl)thiazolidin-4-one]",96.5,93.6,75.4,72.2,68,62.9,51.9,41.3,99.1,87.6,79.7,76.2,72.4,64.6,57.8,70.5,60.6,zone of inhibition at 500 µg/mL [2]: 9 mm; zone of inhibition at 500 µg/mL [3]: 6 mm; viability at 125 µg/mL [5]: 57.2%; viability at 250 µg/mL [5]: 48.1%; viability at 500 µg/mL [5]: 39.5%; IC50 [5]: 223 µg/mL
118 to 120,185,> 500,"O=C1C(Cl)C(c2ccccc2)N1c1nc(-c2cc(Cl)cc3c2-c2ccc(Cl)cc2C3)cs1 (centres unmarked) [6a, 3-Chloro-1-(4-(2,7-dichloro-9H-fluoren-4-yl)thiazol-2-yl)-4-phenylazetidin-2-one]",98.6,89.1,79.2,75.9,70.3,30.7,20.8,14.4,99.4,92.4,90.7,83.1,78.3,69.6,63.2,71.1,66.1,zone of inhibition at 500 µg/mL [2]: 5 mm; zone of inhibition at 500 µg/mL [3]: 13 mm; viability at 125 µg/mL [5]: 59.1%; viability at 250 µg/mL [5]: 49.1%; viability at 500 µg/mL [5]: 47.1%; IC50 [5]: 241 µg/mL
110 to 112,338,> 500,"COc1ccc(C2C(Cl)C(=O)N2c2nc(-c3cc(Cl)cc4c3-c3ccc(Cl)cc3C4)cs2)cc1 (centres unmarked) [6b, 3-Chloro-1-(4-(2,7-dichloro-9H-fluoren-4-yl)thiazol-2-yl)-4-(4-methoxyphenyl)azetidin-2-one]",95.7,86.9,85.8,83.5,77.8,68.2,35.2,36.3,95.9,93.4,89.7,84.2,79.8,72.9,68.9,94.1,87.9,zone of inhibition at 500 µg/mL [3]: 12 mm; viability at 125 µg/mL [5]: 71.6%; viability at 250 µg/mL [5]: 62.6%; viability at 500 µg/mL [5]: 57.7%; IC50 [5]: > 500 µg/mL
83 to 85,415,> 500,"O=C1CSC(c2ccc(Cl)cc2)N1c1nc(-c2cc(Cl)cc3c2-c2ccc(Cl)cc2C3)cs1 (centres unmarked) [5c, 2-(4-Chlorophenyl)-3-(4-(2,7-dichloro-9H-fluoren-4-yl)thiazol-2-yl)thiazolidin-4-one]",91.2,90.1,89.2,80.9,62.6,59.8,46.3,14.9,97.1,95.7,95.8,92.1,86.3,84.5,83,89.7,87.3,zone of inhibition at 500 µg/mL [2]: 3 mm; viability at 125 µg/mL [5]: 83.8%; viability at 250 µg/mL [5]: 77.5%; viability at 500 µg/mL [5]: 71.3%; IC50 [5]: > 500 µg/mL
79 to 82,413,> 500,"O=C1CSC(c2ccccc2)N1c1nc(-c2cc(Cl)cc3c2-c2ccc(Cl)cc2C3)cs1 (centres unmarked) [5a, 3-(4-(2,7-Dichloro-9H-fluoren-4-yl)thiazol-2-yl)-2-phenylthiazolidin-4-one]",95.6,91.4,86.8,82.3,79.7,75.4,45.5,12.5,98.3,96.7,93.6,86.1,85.9,82.5,75.8,89.8,83.3,zone of inhibition at 500 µg/mL [2]: 3 mm; viability at 125 µg/mL [5]: 80.6%; viability at 250 µg/mL [5]: 77.3%; viability at 500 µg/mL [5]: 74.3%; IC50 [5]: > 500 µg/mL
155 to 157,574,> 500,"O=C1CSC(c2ccc(Br)cc2)N1c1nc(-c2cc(Cl)cc3c2-c2ccc(Cl)cc2C3)cs1 (centres unmarked) [5d, 2-(4-Bromophenyl)-3-(4-(2,7-dichloro-9H-fluoren-4-yl)thiazol-2-yl)thiazolidin-4-one]",98.4,91.7,88.9,82.2,78.8,73,58.6,18.1,96.8,94.4,93.7,92.4,88.4,87.2,85.7,94.9,88.5,zone of inhibition at 500 µg/mL [2]: 4 mm; viability at 125 µg/mL [5]: 86.1%; viability at 250 µg/mL [5]: 50.7%; viability at 500 µg/mL [5]: 44.2%; IC50 [5]: 268 µg/mL
